Assay results published in the supplement of paper PMC10307832.

Assays:
Experiment in all cases: relative viability (nuclei count vs DMSO), 5 days (fraction); higher = more cells survive
[1] = compound: COC1=CC=C(C=C1)CN2C=CC3=C2C=C(C=C3)C(=O)NO + Nc1nc2[nH]cc(CCc3ccc(C(=O)N[C@@H](CCC(=O)O)C(=O)O)cc3)c2c(=O)[nH]1 [Pemetrexed] (partner 0.2 µM)
How it was run: (§1)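 Lung cancer cell lines, seeded in 1536-well plates, were treated the following day by pin tool with a single drug or with five library-drug doses (not always all listed) in √10 steps on top of a fixed anchor-drug dose. Cells were fixed and nuclei stained in one step after 5 days, and nuclei were counted. Relative viability is the nuclei count for treated wells divided by that for vehicle wells, reported as medians of duplicate plates.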

[2] = compound: C[C@]1(c2nc3c(C(N)=O)cccc3[nH]2)CCCN1 [Veliparib] + CS(=O)(=O)CCNCc1ccc(-c2ccc3ncnc(Nc4ccc(OCc5cccc(F)c5)c(Cl)c4)c3c2)o1 [Lapatinib] (partner 2 µM)
How it was run: as §1

[3] = compound: COC1=CC=C(C=C1)CN2C=CC3=C2C=C(C=C3)C(=O)NO + Cc1nc(Nc2ncc(C(=O)Nc3c(C)cccc3Cl)s2)cc(N2CCN(CCO)CC2)n1 [Dasatinib] (partner 0.075 µM)
How it was run: as §1

[4] = compound: COC1=CC=C(C=C1)CN2C=CC3=C2C=C(C=C3)C(=O)NO + C[C@]1(O)C[C@@H](c2nc(-c3ccc4ccc(-c5ccccc5)nc4c3)c3c(N)nccn32)C1 [Linsitinib] (partner 1 µM)
How it was run: as §1

| Cell Line | relative viability ([1]; first compound 0.08 µM) | relative viability ([1]; first compound 0.253 µM) | relative viability ([1]; first compound 0.8 µM) | relative viability ([1]; first compound 2.53 µM) | relative viability ([1]; first compound 8 µM) | relative viability ([2]; first compound 0.02 µM) | relative viability ([2]; first compound 0.06325 µM) | relative viability ([2]; first compound 0.2 µM) | relative viability ([2]; first compound 0.6325 µM) | relative viability ([2]; first compound 2 µM) | relative viability ([3]; first compound 0.08 µM) | relative viability ([3]; first compound 0.253 µM) | relative viability ([3]; first compound 0.8 µM) | relative viability ([3]; first compound 2.53 µM) | relative viability ([3]; first compound 8 µM) | relative viability ([4]; first compound 0.253 µM) | relative viability ([4]; first compound 0.8 µM) | relative viability ([4]; first compound 2.53 µM) | relative viability ([4]; first compound 8 µM) | relative viability ([4]; first compound 0.08 µM) |
| --- | --- | --- | --- | --- | --- | --- | --- | --- | --- | --- | --- | --- | --- | --- | --- | --- | --- | --- | --- | --- |
| HCC-366 | 0.119 | 0.153 | 0.172 | 0.153 | 0.175 | 1.06 | 0.897 | 0.929 | 0.974 | 1.09 | 0.483 | 0.639 | 0.658 | 0.526 | 0.574 | 0.98 | 0.636 | 0.673 | 0.696 | – |
| NCI-H1975 | 0.288 | 0.294 | 0.299 | 0.291 | 0.286 | 0.843 | 0.765 | 0.831 | 0.873 | 0.911 | 0.342 | 0.413 | 0.447 | 0.359 | 0.325 | 1.07 | 0.956 | 0.931 | 0.863 | 0.929 |
| NCI-H460 | 0.0617 | 0.058 | 0.0547 | 0.0598 | 0.0652 | – | 0.866 | 0.909 | 0.904 | 1.01 | 0.545 | 0.556 | 0.553 | 0.48 | 0.343 | 0.879 | 0.714 | 0.705 | 0.776 | 0.553 |
| NCI-H1355 | 0.538 | 1.06 | 0.978 | 1.06 | 0.998 | – | 0.882 | 0.999 | 0.939 | 0.968 | – | 0.764 | 0.717 | 0.698 | 0.679 | 0.826 | 0.812 | 0.895 | 0.809 | 0.792 |
| NCI-H1755 | 0.421 | 0.379 | 0.443 | 0.437 | 0.512 | 1.02 | 1 | 1.01 | 0.99 | 0.989 | 0.37 | 0.466 | 0.414 | 0.444 | 0.397 | 0.987 | 1 | 1.04 | 1.02 | 0.955 |
| HCC-78 | 0.901 | 0.872 | 0.938 | 0.918 | 0.66 | 0.762 | 0.837 | 0.652 | 0.849 | 0.566 | 0.436 | 0.362 | 0.391 | 0.449 | 0.39 | 0.542 | 0.537 | 0.491 | 0.453 | – |
| NCI-H2405 | 0.979 | – | 1.02 | 1.03 | 0.948 | – | 0.941 | 1.09 | 1.14 | 1.26 | 0.209 | 0.214 | 0.221 | 0.196 | 0.177 | 0.932 | 0.915 | 0.915 | 0.794 | 0.66 |
| NCI-H2085 | 1.07 | 0.951 | 1.02 | 0.941 | 0.948 | 0.473 | 0.684 | 0.677 | 0.782 | 0.637 | 0.235 | 0.293 | 0.221 | 0.225 | 0.214 | 0.921 | 0.931 | 0.925 | 0.934 | 0.794 |
